Consider 53 substances from US11541107B2, “Peptides and T cells for use in immunotherapeutic treatment of various cancers” (Immatics Biotechnologies GmbH, priority 2015, dated 2023).

The test system of the experiment is HLA-A*24. The experiment can be described thus: MHC binding assay, UV-ligand exchange with beta2m ELISA, HLA-A*24. As to conditions: binding to HLA-A*24 ranged by peptide exchange yield (UV-ligand exchange, beta2m ELISA). The arrangement: species or system human. The text has this:
Candidate peptides for T cell based therapies according to the present invention were further tested for their MHC binding capacity (affinity). The individual peptide-MHC complexes were produced by UV-ligand exchange, where a UV-sensitive peptide is cleaved upon UV-irradiation, and exchanged with the peptide of interest as analyzed. Only peptide candidates that can effectively bind and stabilize the peptide-receptive MHC molecules prevent dissociation of the MHC complexes. To determine the yield of the exchange reaction, an ELISA was performed based on the detection of the light chain (ß2 m) of stabilized MHC complexes. The assay was performed as generally described in Rodenko et al. (Rodenko et al., 2006).
96 well MAXISorp plates (NUNC) were coated over night with 2 ug/ml streptavidin in PBS at room temperature, washed 4× and blocked for 1 h at 37° C. in 2% BSA containing blocking buffer. […] Peptide-MHC monomers of the UV-exchange reaction were diluted 100 fold in blocking buffer. Samples were incubated for 1 h at 37° C., washed four times, incubated with 2 ug/ml HRP conjugated anti-β2 m for 1h at 37° C., washed again and detected with TMB solution that is stopped with […]. Absorption was measured at 450 nm. Candidate peptides that show a high exchange yield (preferably higher than 50%, most preferred higher than 75%) are generally preferred for a generation and production of antibodies or fragments thereof, and/or T cell receptors or fragments thereof, as they show sufficient avidity to the MHC molecules and prevent dissociation of the MHC complexes.
On the technique in general: An ELISA detects its analyte on a solid surface through an enzyme-linked reagent.
Turning to “135 (VYEAMVPLF; listed as Homo sapiens) [compound 135]”, the Peptide exchange result is on record as “++++ (>=75% = ++++)”.
Next, “240 (YYFFVQEKI; listed as Homo sapiens) [compound 240]”: “+++ (50%-75% = +++)”; “114 (QYLDGTWSL; listed as Homo sapiens) [compound 114]”: “++++ (>=75% = ++++)”.
“387 (KYTEKLEEI; listed as Homo sapiens) [compound 387]”: the Peptide exchange result is “+++ (50%-75% = +++)”.
Then “264 (LYTETRLQF; listed as Homo sapiens) [compound 264]”, with “++++ (>=75% = ++++)”; and “318 (TYSNSAFQYF; listed as Homo sapiens) [compound 318]”, with “+++ (50%-75% = +++)”.
Turning to “131 (EYLDRIGQLFF; listed as Homo sapiens) [compound 131]”, the Peptide exchange result is on record as “+++ (50%-75% = +++)”.
Next, “213 (SYAPPSEDLFL; listed as Homo sapiens) [compound 213]”: “++ (20%-49% = ++)”; “288 (VYPDTVALTF; listed as Homo sapiens) [compound 288]”: “++ (20%-49% = ++)”.
Consider “196 (GYIRGSWQF; listed as Homo sapiens) [compound 196]”, for which the Peptide exchange entry is “++++ (>=75% = ++++)”.
Next, “262 (VYSSQFETI; listed as Homo sapiens) [compound 262]”: “++++ (>=75% = ++++)”; “375 (KYTDYILKI; listed as Homo sapiens) [compound 375]”: “+++ (50%-75% = +++)”; “133 (KYLEDMKTYF; listed as Homo sapiens) [compound 133]”: “+++ (50%-75% = +++)”.
Next, “227 (IYRFITERF; listed as Homo sapiens) [compound 227]”: “+++ (50%-75% = +++)”; “246 (KYLSVQLTL; listed as Homo sapiens) [compound 246]”: “++ (20%-49% = ++)”; “319 (KYSDVKNLI; listed as Homo sapiens) [compound 319]”: “++++ (>=75% = ++++)”.
As to “232 (YYLSDSPLL; listed as Homo sapiens) [compound 232]”, the Peptide exchange entry was “+++ (50%-75% = +++)”.
As to “308 (TFDGHGVFF; listed as Homo sapiens) [compound 308]”, the Peptide exchange result was “+++ (50%-75% = +++)”.
Then “97 (TYTFLKETF; listed as Homo sapiens) [compound 97]”, with “++++ (>=75% = ++++)”; and “313 (KYTHFIQSF; listed as Homo sapiens) [compound 313]”, with “++++ (>=75% = ++++)”.
Regarding “315 (FYIPHVPVSF; listed as Homo sapiens) [compound 315]”, the Peptide exchange result is on record as “+++ (50%-75% = +++)”.
Turning to “297 (TYIDTRTVF; listed as Homo sapiens) [compound 297]”, the Peptide exchange result is given as “++++ (>=75% = ++++)”.
Next, “357 (QFITSTNTF; listed as Homo sapiens) [compound 357]”: “++++ (>=75% = ++++)”; “248 (AFPTFSVQL; listed as Homo sapiens) [compound 248]”: “++++ (>=75% = ++++)”.
Take “362 (VYNYAEQTL; listed as Homo sapiens) [compound 362]”: the Peptide exchange entry is listed as “++ (20%-49% = ++)”.
Then “349 (QYSIISNVF; listed as Homo sapiens) [compound 349]”, with “+++ (50%-75% = +++)”.
Next, “268 (IFITKALQI; listed as Homo sapiens) [compound 268]”: “++ (20%-49% = ++)”.
Then “301 (KFDDVTMLF; listed as Homo sapiens) [compound 301]”, with “++++ (>=75% = ++++)”.
As to “113 (IYSFHTLSF; listed as Homo sapiens) [compound 113]”, the Peptide exchange result is reported as “+++ (50%-75% = +++)”.
On to “145 (VYALKVRTI; listed as Homo sapiens) [compound 145]”, for which the Peptide exchange result is “+++ (50%-75% = +++)”.
Next, “310 (IYAPTLLVF; listed as Homo sapiens) [compound 310]”: “+++ (50%-75% = +++)”.
Next, “215 (SYVASFFLL; listed as Homo sapiens) [compound 215]”: “++ (20%-49% = ++)”; “309 (KYYRQTLLF; listed as Homo sapiens) [compound 309]”: “++ (20%-49% = ++)”; “269 (QYPYLQAFF; listed as Homo sapiens) [compound 269]”: “+++ (50%-75% = +++)”.
For the substance “136 (IYPEWPVVFF; listed as Homo sapiens) [compound 136]”, the Peptide exchange entry is “+++ (50%-75% = +++)”.
Next, “287 (IYNPNLLTASKF; listed as Homo sapiens) [compound 287]”: “+++ (50%-75% = +++)”; “204 (EYLSTCSKL; listed as Homo sapiens) [compound 204]”: “+++ (50%-75% = +++)”.
Next, “179 (TYIPVGLGRLL; listed as Homo sapiens) [compound 179]”: “+++ (50%-75% = +++)”; “316 (VYFEGSDFKF; listed as Homo sapiens) [compound 316]”: “+++ (50%-75% = +++)”; “239 (VYAIFRILL; listed as Homo sapiens) [compound 239]”: “+++ (50%-75% = +++)”.
Turning to “165 (EYFTPLLSGQF; listed as Homo sapiens) [compound 165]”, the Peptide exchange result was “+++ (50%-75% = +++)”.
Consider “267 (SFLNIEKTEILF; listed as Homo sapiens) [compound 267]”, for which the Peptide exchange entry is reported as “++ (20%-49% = ++)”.
Next, “218 (LYSELNKWSF; listed as Homo sapiens) [compound 218]”: “+++ (50%-75% = +++)”; “191 (TYPDGTYTGRIF; listed as Homo sapiens) [compound 191]”: “+++ (50%-75% = +++)”; “194 (VYQSLSNSL; listed as Homo sapiens) [compound 194]”: “+++ (50%-75% = +++)”.
Then “253 (IYGFFNENF; listed as Homo sapiens) [compound 253]”, with “+++ (50%-75% = +++)”; and “183 (PYLQDVPRI; listed as Homo sapiens) [compound 183]”, with “+++ (50%-75% = +++)”; and “295 (SYLVIHERI; listed as Homo sapiens) [compound 295]”, with “+++ (50%-75% = +++)”.
Then “211 (VFKSEGAYF; listed as Homo sapiens) [compound 211]”, with “++++ (>=75% = ++++)”.
Consider “385 (QYIEELQKF; listed as Homo sapiens) [compound 385]”, for which the Peptide exchange entry is “+++ (50%-75% = +++)”.
In the case of “255 (VYQKIILKF; listed as Homo sapiens) [compound 255]”, the Peptide exchange result was “+++ (50%-75% = +++)”.
Next, “198 (DYVGFTLKI; listed as Homo sapiens) [compound 198]”: “++ (20%-49% = ++)”; “275 (KYGTLDVTF; listed as Homo sapiens) [compound 275]”: “++++ (>=75% = ++++)”.
